Reference: article PMC5899197 (Journal of Virology, 2018)

These compounds were tested against T1, BNeV VLPs (rMA415; VP1-major capsid and VP2-minor capsid) (Newbury agent 1, UniProt Q288N7).
T1 construct: gene ORF1
Format: binding

T1 sequence (Q288N7 whole entry, looked up): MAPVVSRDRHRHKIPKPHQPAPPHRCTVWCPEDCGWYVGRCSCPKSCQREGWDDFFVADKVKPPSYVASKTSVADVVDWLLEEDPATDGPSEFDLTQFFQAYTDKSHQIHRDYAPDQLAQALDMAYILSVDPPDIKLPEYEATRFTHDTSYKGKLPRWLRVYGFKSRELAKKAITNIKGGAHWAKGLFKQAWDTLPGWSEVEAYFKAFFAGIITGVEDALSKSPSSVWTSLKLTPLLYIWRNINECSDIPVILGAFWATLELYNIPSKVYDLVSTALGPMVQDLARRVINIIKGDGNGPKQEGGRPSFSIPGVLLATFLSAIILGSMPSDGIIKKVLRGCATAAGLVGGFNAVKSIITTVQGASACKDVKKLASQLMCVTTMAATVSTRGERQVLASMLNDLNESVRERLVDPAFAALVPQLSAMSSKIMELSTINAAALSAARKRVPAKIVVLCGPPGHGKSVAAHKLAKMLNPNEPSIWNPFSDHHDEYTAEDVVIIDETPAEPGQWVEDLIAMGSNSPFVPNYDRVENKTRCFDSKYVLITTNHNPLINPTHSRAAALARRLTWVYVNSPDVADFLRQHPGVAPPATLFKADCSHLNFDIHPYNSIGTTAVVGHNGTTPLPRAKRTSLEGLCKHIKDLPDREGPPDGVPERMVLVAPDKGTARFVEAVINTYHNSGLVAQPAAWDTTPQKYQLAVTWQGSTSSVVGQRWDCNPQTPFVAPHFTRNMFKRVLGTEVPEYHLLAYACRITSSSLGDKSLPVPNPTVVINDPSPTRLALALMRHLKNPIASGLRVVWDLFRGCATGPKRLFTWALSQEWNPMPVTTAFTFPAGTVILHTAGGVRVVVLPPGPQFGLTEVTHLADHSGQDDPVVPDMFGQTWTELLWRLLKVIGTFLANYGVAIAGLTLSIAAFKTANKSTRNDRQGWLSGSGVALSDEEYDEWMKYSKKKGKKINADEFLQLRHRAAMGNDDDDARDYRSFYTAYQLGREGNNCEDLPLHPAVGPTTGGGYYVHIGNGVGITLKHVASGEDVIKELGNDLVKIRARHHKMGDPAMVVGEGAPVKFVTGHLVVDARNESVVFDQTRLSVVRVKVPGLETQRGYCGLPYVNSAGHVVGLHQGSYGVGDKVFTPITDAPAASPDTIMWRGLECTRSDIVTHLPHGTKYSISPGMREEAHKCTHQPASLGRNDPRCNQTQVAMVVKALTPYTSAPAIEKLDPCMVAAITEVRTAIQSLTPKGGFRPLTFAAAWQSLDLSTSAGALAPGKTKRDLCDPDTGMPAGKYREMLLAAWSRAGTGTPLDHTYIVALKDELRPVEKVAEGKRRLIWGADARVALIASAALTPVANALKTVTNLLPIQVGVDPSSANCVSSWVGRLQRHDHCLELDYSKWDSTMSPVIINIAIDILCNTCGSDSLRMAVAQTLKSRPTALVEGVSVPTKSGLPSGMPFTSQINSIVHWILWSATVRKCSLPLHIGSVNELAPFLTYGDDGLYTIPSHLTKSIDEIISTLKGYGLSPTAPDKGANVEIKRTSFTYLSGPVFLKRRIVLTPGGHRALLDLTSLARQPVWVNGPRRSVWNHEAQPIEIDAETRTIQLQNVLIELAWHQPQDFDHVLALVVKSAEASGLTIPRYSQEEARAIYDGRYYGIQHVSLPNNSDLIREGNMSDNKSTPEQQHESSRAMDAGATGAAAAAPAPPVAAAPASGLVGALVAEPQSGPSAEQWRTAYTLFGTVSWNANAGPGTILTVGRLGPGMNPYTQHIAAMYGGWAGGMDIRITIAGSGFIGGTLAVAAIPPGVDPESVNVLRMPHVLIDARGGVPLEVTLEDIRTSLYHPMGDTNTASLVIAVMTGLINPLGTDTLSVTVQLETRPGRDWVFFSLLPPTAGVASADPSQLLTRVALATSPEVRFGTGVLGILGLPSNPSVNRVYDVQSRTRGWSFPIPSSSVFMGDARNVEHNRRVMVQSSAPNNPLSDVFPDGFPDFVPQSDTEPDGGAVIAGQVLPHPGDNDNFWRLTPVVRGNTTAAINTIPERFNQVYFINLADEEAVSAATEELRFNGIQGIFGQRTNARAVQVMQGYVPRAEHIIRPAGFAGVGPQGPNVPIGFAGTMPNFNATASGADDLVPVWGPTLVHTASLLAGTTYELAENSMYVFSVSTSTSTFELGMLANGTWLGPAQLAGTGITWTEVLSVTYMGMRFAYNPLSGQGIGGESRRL

Structure (SMILES) | plate binding assay (ELISA), HRP-streptavidin, A450
CC(=O)N[C@H]1C(O)O[C@H](CO)[C@@H](O[C@@H]2O[C@H](CO)[C@H](O)[C@H](O)[C@H]2O[C@@H]2O[C@@H](C)[C@@H](O)[C@@H](O)[C@@H]2O)[C@@H]1O[C@@H]1O[C@@H](C)[C@@H](O)[C@@H](O)[C@@H]1O (stereo partly shown) [Le^y] | sialyl-Le^a (SLe^a), Le^y, Le^x, αGal, H2, H1, SLe^x, A, and B type immobilized synthetic HBGA
CC(=O)N[C@H]1C(O)O[C@H](CO)[C@@H](O[C@@H]2O[C@H](CO)[C@H](O)[C@H](O)[C@H]2O[C@@H]2O[C@@H](C)[C@@H](O)[C@@H](O)[C@@H]2O)[C@@H]1O (stereo partly shown) [H2] | sialyl-Le^a (SLe^a), Le^y, Le^x, αGal, H2, H1, SLe^x, A, and B type immobilized synthetic HBGA
CC(=O)N[C@H]1C(O)O[C@H](CO)[C@@H](O[C@@H]2O[C@H](CO)[C@H](O)[C@H](O)[C@H]2O)[C@@H]1O[C@@H]1O[C@@H](C)[C@@H](O)[C@@H](O)[C@@H]1O (stereo partly shown) [Le^x] | sialyl-Le^a (SLe^a), Le^y, Le^x, αGal, H2, H1, SLe^x, A, and B type immobilized synthetic HBGA
CC(=O)N[C@H]1[C@H]([C@H](O)[C@H](O)CO)O[C@@](O[C@H]2[C@@H](O)[C@@H](CO)O[C@@H](O[C@H]3[C@H](O[C@@H]4O[C@@H](C)[C@@H](O)[C@@H](O)[C@@H]4O)[C@@H](CO)OC(O)[C@@H]3NC(C)=O)[C@@H]2O)(C(=O)O)C[C@@H]1O (stereo partly shown) [sialyl-Le^a] | sialyl-Le^a (SLe^a), Le^y, Le^x, αGal, H2, H1, SLe^x, A, and B type immobilized synthetic HBGA
